According to a melting point compilation (Tetko et al.; mined from patent text by program, amines drawn as free bases though some values may be those of a salt):

melting point | Compound
75 °C | c1ccc(CN2CCC(Oc3ccccn3)CC2)cc1
248 to 251 °C | CCn1c(=O)[nH]c2cc3c(N4CCN(C(=O)Nc5ccc(Oc6ccccc6)cc5)CC4)ncnc3cc21
164 to 166 °C | CCCOc1ccccc1-c1nc(NCCO)cc(=O)[nH]1
207 to 215 °C | O=C(Nc1ccccc1C(=O)NCCc1ncc[nH]1)c1ccc(C(F)(F)F)cc1
204 to 206 °C | CCCCNC(=O)Nc1ncc(-c2ccncc2)cn1
239 to 240 °C | COc1ccc(Cn2c(N)cc(=O)[nH]c2=S)cc1OCc1ccccc1
150 to 151 °C | COc1cc(Cl)cn2cc(-c3ccc(Cl)cc3)nc12
127 to 129 °C | O=C(OCc1ccccc1)c1ccc2[nH]ccc2c1
242 to 244 °C | CC(=Cc1ccc(C(=O)O)cc1)c1ccc2c(c1)OCCC2(C)C
155 to 156 °C | C=CCOC(=O)c1ccc(NC(=O)C(C(=O)OC)c2ccc3c(c2)C(C)(C)CCC3(C)C)cc1 (stereo unspecified)
> 300 °C | Cc1c[nH]c2c(NC(=O)c3c(Cl)cccc3Cl)cccc2c1=O
115 to 117 °C | CS(=O)(=O)c1ccc(-c2[nH]c(CO)nc2-c2ccc(F)cc2)cc1
154 to 156 °C | CCOC(=O)c1nn(-c2ccccc2)c2c1COc1ccccc1-2
171 to 174 °C | COC(=O)c1cccc(Cn2ccc(OCc3ccc(F)cc3F)c(Cl)c2=O)c1F
116 °C | CCCN(CCCCc1c[nH]c2ccc(F)cc12)C1COc2c(C(N)=O)ccc(F)c2C1 (stereo unspecified)
78 to 80 °C | CC(C)[C@](C)(S)C(=O)O
194 °C | Cc1cc(C)c2c(c1C)C(C(=O)O)=C(Cl)C2=O
79.5 to 81 °C | Cc1ccnc(N)c1C
154 to 156 °C | Cc1cc(-c2c(Cl)ccc(C(=O)O)c2Cl)on1

melting point | Compound
308 °C | COc1ccc(N2CCC(c3c(N)nc(N)[nH]c3=O)CC2)cc1
61 to 63 °C | COCCOc1cc(NC(=O)OC(C)(C)C)c(NC(=O)CC(=O)c2cccc(-n3ccnc3)c2)cc1-c1ccc(F)cc1
169 to 170 °C | CC1C(=NCCCN(C)C)c2c([nH]c3ccc(Cl)cc3c2=O)CC1c1ccc(C(F)(F)F)cc1 (stereo unspecified)
166 to 167 °C | CCS(=O)(=O)c1nnc(NN)s1
142 to 144 °C | O=C(Nc1ccc(-n2nc(C(F)(F)F)cc2C(F)(F)F)cc1)c1cccc(Cl)c1
127 to 128 °C | CN1CCN(c2cccc3c2CC[C@@H](NC(=O)c2ccc(N4CCOCC4)cc2)C3)CC1
114 to 115 °C | CCOC(=O)c1c(CN(CCC(C)C)CCC(C)C)nc2cc(OC)c(OC)cc2c1-c1ccc(OC)c(OC)c1
146 to 147 °C | COc1cc(C(=O)N2CCN(C(=O)OC(C)(C)C)C(C(=O)N(C)C)C2)cc(OC)c1OC (stereo unspecified)
101 to 104 °C | CC(=O)N1N=C(c2ccncc2)OC1c1ccc(Cl)c(Cl)c1 (stereo unspecified)
164 to 165 °C | COc1ccc(CS(=O)(=O)CC(=O)O)cc1O
224 to 226 °C | O=S(=O)(Nc1c(F)cccc1F)c1nc2ncc(Cl)cn2n1
98 to 99 °C | CC(C)(C)OC(=O)NCCCCC(=O)N1CCC(c2[nH]nc3c2C(=O)c2c(NC(=O)NN4CCOCC4)cccc2-3)CC1
145 to 146 °C | Cc1cccc(C(=O)NC(NC(=NC#N)Nc2ccc(Cl)nc2)C(C)(Cl)Cl)c1 (stereo unspecified)
98 °C | Cc1ccc(S(N)(=O)=O)cc1C(O)CN=[N+]=[N-] (stereo unspecified)
135 to 136 °C | O=C1COCCCOC(=O)COCCCO1
222 to 225 °C | O=C(NC1CCCCC1)NC1CCCc2sccc21 (stereo unspecified)
235 to 237 °C | CC(=O)Oc1cc2nc[nH]c(=O)c2cc1OC(C)=O
212 °C | NC(=O)Cc1ccc([N+](=O)[O-])c(C(=O)c2ccc(Cl)cc2)c1
142 °C | O=C1c2cccc(NC(=S)Nc3ccccn3)c2C2CC3(CCN12)SCCS3 (stereo unspecified)

melting point | Compound
155 to 157 °C | COC(=O)c1ccc(Cl)cc1-n1c(CCl)nc2ccccc2c1=O
78.5 to 79 °C | Cc1nc(-c2ccc(OCCCc3ccccc3)cc2)no1
214 to 216 °C | COc1cc(OC)c2c(=O)cc(-c3ccc(C#N)cc3)oc2c1C1CCN(C)C1CO (stereo unspecified)
269 to 270 °C | O=C(O)c1ccc(COc2ccc3c(c2)CCN(C2CCN(C4CCC4)CC2)C3=O)cc1
50 to 55 °C | CCOC(=O)c1cc2c(C(F)(F)F)coc2nc1C(=O)OCC
210 to 214 °C | Cc1cc(NC(=O)NC(=O)c2c(Cl)cccc2Cl)ncc1-c1ccccc1
258 °C | CCNn1cc(C(=O)O)c(=O)c2cc(F)c(Cl)cc21
118 to 119 °C | CC(C)Oc1ccc(CCCOc2cc(CCC(=O)O)n(-c3ccccc3)n2)c(OCc2ccc(C(F)(F)F)cc2)c1
128 to 130 °C | CC1=CC2C(=O)NC(=O)C2(Cc2ccccc2)C=C1 (stereo unspecified)
51 to 53 °C | CCCCCCCCCCCCCCC(=O)CC(=O)OC
112 °C | COc1ccc(CCc2ccc(C(=O)O)cc2)cc1OC(C)CCCc1ccccc1 (stereo unspecified)
126 to 128 °C | Cc1cccc(-c2nc(-c3ccc(S(C)(=O)=O)cc3)sc2-c2ccnc(S(=O)(=O)c3ccccc3)c2)c1
231 to 233 °C | Nc1ncnc2c1ncn2Cc1oc2ccc(Br)cc2c(=O)c1-c1ccccc1F
70 to 73 °C | CC(=O)O/N=C1\CCc2ccccc2C1=Cc1ccc(S(C)(=O)=O)cc1
> 300 °C | CC(C)(C)OC(=O)Cn1c(=O)c(=O)[nH]c2cc(Cl)c(Cl)cc21
130 °C | COc1cc(C=O)ccc1OCCN1c2ccccc2Sc2ccccc21
> 280 °C | CCOC(=O)c1cnc2nc(C=CC(=O)O)c(OCC)cc2c1O
92 to 94 °C | COC(=O)C1Sc2cc(Cl)ccc2OCC1=O (stereo unspecified)

Second part, the molecule before the results:

Compound | melting point
Cc1nc(N)nc(N)c1C=CC(C)(C)c1ccc(F)cc1 | 164 to 168 °C
NCCCCN1C(=O)NC(c2ccccc2)(c2ccccc2)C1=O | 137 to 138 °C
O=C(O)c1cc(Br)ccc1NCCC=C1c2ccccc2CCc2ccccc21 | 226 to 227 °C
NC(=O)NC1CCN2CCc3ccccc3C2C1 (stereo unspecified) | 235 °C
N=c1ncccn1CCc1ccccc1Br | 97 to 98 °C
NS(=O)(=O)c1ccccc1C1CO1 (stereo unspecified) | 136 to 139 °C
Clc1ccc(CNc2nc(NC3CCCc4ccccc43)c3ccccc3n2)cc1 (stereo unspecified) | 166 to 167 °C
Nc1nc(-c2ccc(F)cc2)cc(-c2ccc(F)cc2)n1 | 207 to 210 °C
Cc1c(C(=O)O)ccc(S(C)(=O)=O)c1-c1ccon1 | 150 to 151 °C
CC(=O)N1CCc2ccc(SCc3ccccc3)c([N+](=O)[O-])c2C1 | 94 to 95 °C
COc1cc(CCNc2ncnc3c(F)ccc(F)c23)ccc1Oc1ccc(C(F)(F)F)cn1 | 119 to 121 °C
O=C(Cc1ccccc1)Nc1ccnc(NC(=O)NCc2ccccn2)c1 | 219 to 220 °C
O=c1ccc(-c2ccsc2)n[nH]1 | 169 to 171 °C
CC(C)(C)c1ccc(N2C[C@H](Cn3ccnn3)OC2=O)cc1 | 140 to 142 °C
c1ccc2c(c1)C(=NOCCN1CCCCC1)c1ccccc1C1CC21 (stereo unspecified) | 75 to 76 °C
CCOC(=O)COC(=O)c1cc(S(N)(=O)=O)c(Cl)cc1NCc1ccco1 | 46 °C
COCOc1ccccc1-c1nc(N)c(C#N)c(-c2cccc([N+](=O)[O-])c2)c1C | 154 to 155 °C
COc1cc2ccccc2cc1O | 108 to 109 °C
COc1cc(NS(C)(=O)=O)ccc1-c1nc2cc3c(cc2[nH]1)NC(=O)C3(C)C | > 300 °C
Cc1cccc2c1S(=O)(=O)NC(C1CCCCC1)N2 (stereo unspecified) | 228 to 230 °C
CC(C)C[C@H](C(=O)O)N1CC[C@]2(CCCN2C(=O)C(C)C)C1=O | 68 to 69 °C
Cc1cccc(NC(=O)c2ccc(C(=O)N3Cc4cccn4Cc4ccccc43)cc2)c1C | 239 to 240 °C
CC(C)(C)OC(=O)n1cc(I)c2ccncc21 | 68 to 72 °C

Compound | melting point
CC(C)=CC(=O)N1CC(NC(=O)Nc2cccc(C(=O)O)c2)C(=O)N(CC(=O)c2ccccc2C)c2cc(C)ccc21 (stereo unspecified) | 240 to 242 °C
C=CCOc1cc(N)c(Cl)cc1C(=O)O | 136 to 137 °C
COc1ccc2c(C)c(CCN3CCN(c4ccccc4OC)CC3)c(=O)oc2c1 | 129 to 130 °C
C=Cn1cc(C(=O)O)c(=O)c2cc(F)c(N3CCN(C)C(C)C3)c(F)c21 (stereo unspecified) | 178 to 179 °C
COC(=O)C1=C(C)NC(C)=C(C(=O)OC)C1c1ccccc1CC(OC)OC | 113 to 114 °C
O=S1(=O)c2ccccc2N(c2ccc(OCc3ccccc3)cc2)c2ccccc21 | 203 to 208 °C
COc1ccc(CCCC(O)COc2ccc(OCc3ncc[nH]3)cc2)cc1OC (stereo unspecified) | 129 to 130 °C
CC(C(=O)O)c1ccc(Nc2nc3ccccc3[nH]2)cc1 (stereo unspecified) | 355 to 358 °C
O=c1nc(N2CCc3ccccc32)sc2ncccc12 | 249 to 250 °C
CCCCCCCCCCCCCOCCCCO | 26 to 29 °C
O=[N+]([O-])c1ccc(NCCSCc2c[nH]cn2)nc1 | 145 to 147 °C
COc1ccccc1N1CCN(C(=O)[C@@H](Cc2ccccc2)NC(=O)OC(C)(C)C)CC1 | 95 to 97 °C
CC(COc1ccccc1)=C1SC(=O)NC1=O | 153 to 155 °C
CCOC(=O)c1ccc(-c2nn(Cc3ccccc3)c3ccccc23)cc1 | 95 to 96 °C
Cc1ccc2c(NCc3ccc(NC(=O)c4ccc(Cl)cc4)cc3)nc(N3CCCCCC3)nc2c1 | 192 to 194 °C
CCCOc1ccccc1-c1cc(C)c(C(=O)OC)c(=O)[nH]1 | 167 to 169 °C
COC(=O)C1=Cc2cc(-c3ccc4c(c3)OCO4)ccc2S(=O)(=O)CC1 | 185 to 187 °C
COC=C(C(=O)OC)c1ccccc1Oc1ncnc(F)c1Cl | 102 °C
C=CCS(=O)(=O)c1ccc(N2CC=C(c3ccc(Cl)c(Cl)c3)N2)cc1 | 198 °C
CCC12OC1C(=O)C(Nc1ncnc3cc(OC)c(OC)cc13)=CC2=O (stereo unspecified) | 202 to 204 °C
CCOC(=O)COc1ccc(-c2nc(-c3ccc(C)cc3)nc(-c3ccc(C)cc3)n2)c(O)c1 | 166 to 167 °C
CC(NC(=O)c1cccnc1)c1ccccc1 (stereo unspecified) | 88 to 89 °C
